Active and inactive are the calls of the source. The rule behind the calls is not given here.
System: CCRIS mutagenicity, Ames/micronucleus/aberration tests
Test: CCRIS mutagenicity studies
[1] = Test System: AMES SALMONELLA TYPHIMURIUM, Strain/Indicator: TA98, Metabolic Activation: NONE, Method: STANDARD PLATE
[2] = Test System: AMES SALMONELLA TYPHIMURIUM, Strain/Indicator: TA98, Metabolic Activation: RAT, LIVER, S-9, AROCLOR 1254, Method: STANDARD PLATE
[3] = Test System: AMES SALMONELLA TYPHIMURIUM, Strain/Indicator: TA100, Metabolic Activation: NONE, Method: STANDARD PLATE
[4] = Test System: AMES SALMONELLA TYPHIMURIUM, Strain/Indicator: TA100, Metabolic Activation: RAT, LIVER, S-9, AROCLOR 1254, Method: STANDARD PLATE
[5] = Test System: AMES SALMONELLA TYPHIMURIUM, Strain/Indicator: TA1535, Metabolic Activation: NONE, Method: STANDARD PLATE
[6] = Test System: AMES SALMONELLA TYPHIMURIUM, Strain/Indicator: TA1535, Metabolic Activation: RAT, LIVER, S-9, AROCLOR 1254, Method: STANDARD PLATE
[7] = Test System: AMES SALMONELLA TYPHIMURIUM, Strain/Indicator: TA1537, Metabolic Activation: NONE, Method: STANDARD PLATE
[8] = Test System: AMES SALMONELLA TYPHIMURIUM, Strain/Indicator: TA1537, Metabolic Activation: RAT, LIVER, S-9, AROCLOR 1254, Method: STANDARD PLATE
[9] = Test System: AMES SALMONELLA TYPHIMURIUM, Strain/Indicator: TA1538, Metabolic Activation: NONE, Method: STANDARD PLATE
[10] = Test System: AMES SALMONELLA TYPHIMURIUM, Strain/Indicator: TA1538, Metabolic Activation: RAT, LIVER, S-9, AROCLOR 1254, Method: STANDARD PLATE

Structure (SMILES) | mutagenic call [1] | mutagenic call [2] | mutagenic call [3] | mutagenic call [4] | mutagenic call [5] | mutagenic call [6] | mutagenic call [7] | mutagenic call [8] | mutagenic call [9] | mutagenic call [10] | other results
Fc1cccc2c1ccc1ncccc12 | – | – | – | – | – | – | – | – | – | – | mutagenic call (Test System: AMES SALMONELLA TYPHIMURIUM, Strain/Indicator: TA100, Metabolic Activation: RAT, LIVER, S-9, PHENOBARBITAL AND 5,6-BENZOFLAVONE, Method: PREINCUBATION): active; positive
O=C1c2ccccc2C([N+](=O)[O-])c2ccccc21 | inactive; negative | inactive; negative | inactive; negative | inactive; negative | – | – | – | – | – | – | –
C=C(Cl)CSC(=S)N(CC)CC | – | – | inactive; negative | active; positive | – | – | – | – | – | – | mutagenic call (Test System: AMES SALMONELLA TYPHIMURIUM, Strain/Indicator: TA100, Metabolic Activation: RAT, LIVER, CYTOSOL, AROCLOR 1254, Method: STANDARD PLATE): inactive; negative; mutagenic call (Test System: AMES SALMONELLA TYPHIMURIUM, Strain/Indicator: TA100, Metabolic Activation: RAT, LIVER, MICROSOMES, AROCLOR 1254, Method: STANDARD PLATE): inactive; negative; mutagenic call (Test System: AMES SALMONELLA TYPHIMURIUM, Strain/Indicator: TA100, Metabolic Activation: RAT, LIVER, MICROSOMES, CYTOSOL, AROCLOR 1254, Method: STANDARD PLATE): active; positive
CC(C)(C)N(CCO)CCO | inactive; negative | inactive; negative | inactive; negative | inactive; negative | inactive; negative | inactive; negative | inactive; negative | inactive; negative | inactive; negative | inactive; negative | mutagenic call (Test System: CHINESE HAMSTER OVARY, Strain/Indicator: CHO-K1-BH4, Metabolic Activation: NONE): inactive; negative; mutagenic call (Test System: CHINESE HAMSTER OVARY, Strain/Indicator: CHO-K1-BH4, Metabolic Activation: RAT, LIVER, S-9, AROCLOR 1254): inactive; negative
OC/C=C/c1ccccc1 | inactive; negative | inactive; negative | inactive; negative | inactive; negative | inactive; negative | inactive; negative | inactive; negative | inactive; negative | inactive; negative | inactive; negative | mutagenic call (Test System: AMES SALMONELLA TYPHIMURIUM, Strain/Indicator: TA98, Metabolic Activation: HAMSTER, LIVER, S-9, AROCLOR 1254 (2.5-20%), Method: PREINCUBATION): inactive; negative; mutagenic call (Test System: AMES SALMONELLA TYPHIMURIUM, Strain/Indicator: TA98, Metabolic Activation: HAMSTER, LIVER, S-9, AROCLOR 1254, Method: STANDARD PLATE): inactive; negative; mutagenic call (Test System: AMES SALMONELLA TYPHIMURIUM, Strain/Indicator: TA100, Metabolic Activation: HAMSTER, LIVER, S-9, AROCLOR 1254 (2.5-20%), Method: PREINCUBATION): inactive; negative; mutagenic call (Test System: AMES SALMONELLA TYPHIMURIUM, Strain/Indicator: TA100, Metabolic Activation: HAMSTER, LIVER, S-9, AROCLOR 1254, Method: STANDARD PLATE): inactive; negative; mutagenic call (Test System: AMES SALMONELLA TYPHIMURIUM, Strain/Indicator: TA102, Metabolic Activation: HAMSTER, LIVER, S-9, AROCLOR 1254, Method: PREINCUBATION): inactive; negative; mutagenic call (Test System: AMES SALMONELLA TYPHIMURIUM, Strain/Indicator: TA102, Metabolic Activation: NONE, Method: PREINCUBATION): inactive; negative; mutagenic call (Test System: AMES SALMONELLA TYPHIMURIUM, Strain/Indicator: TA102, Metabolic Activation: RAT, LIVER, S-9, AROCLOR 1254, Method: PREINCUBATION): inactive; negative; mutagenic call (Test System: AMES SALMONELLA TYPHIMURIUM, Strain/Indicator: TA1535, Metabolic Activation: HAMSTER, LIVER, S-9, AROCLOR 1254, Method: STANDARD PLATE): inactive; negative; mutagenic call (Test System: AMES SALMONELLA TYPHIMURIUM, Strain/Indicator: TA1537, Metabolic Activation: HAMSTER, LIVER, S-9, AROCLOR 1254, Method: STANDARD PLATE): inactive; negative; mutagenic call (Test System: AMES SALMONELLA TYPHIMURIUM, Strain/Indicator: TA1537, Metabolic Activation: NONE, Method: PREINCUBATION): inactive; negative; mutagenic call (Test System: AMES SALMONELLA TYPHIMURIUM, Strain/Indicator: TA1538, Metabolic Activation: HAMSTER, LIVER, S-9, AROCLOR 1254, Method: STANDARD PLATE): inactive; negative; mutagenic call (Test System: MOUSE LYMPHOMA, Strain/Indicator: L5178Y (TK+/TK-), Metabolic Activation: NONE, Method: SUSPENSION/PLATE): active; positive. reevaluation of results: inconclusive; mutagenic call (Test System: MOUSE LYMPHOMA, Strain/Indicator: L5178Y (TK+/TK-), Metabolic Activation: RAT, LIVER, S-9, AROCLOR 1254, Method: SUSPENSION/PLATE): active; positive. reevaluation of results: positive; mutagenic call (Test System: Mouse lymphoma, Strain/Indicator: L5178Y (tk+/tk-), Metabolic Activation: None, Method: Suspension/plate): inactive; negative; mutagenic call (Test System: Mouse lymphoma, Strain/Indicator: L5178Y (tk+/tk-), Metabolic Activation: Rat, Liver, S-9, Aroclor 1254, Method: Suspension/plate): inactive; negative
CCN(CC)CCCNC(=O)C(=O)N/N=C/c1ccc([N+](=O)[O-])o1 | – | – | – | – | – | – | – | – | – | – | mutagenic call (Test System: E. COLI, Strain/Indicator: WP2 UVRA, Metabolic Activation: NONE, Method: STANDARD PLATE): active; positive

Source: PubChem BioAssay AID1259407 (Chemical Carcinogenesis Research Information System (CCRIS), 2018)
